For data set [1], the system named is CT26 cells. Description: Flow cytometric apoptosis assay. Format: cell-based, mouse. Particulars: flow cytometry annexin V-FITC/PI, 6 h incubation; for apoptosis of CT26 cells, dark: no light. On the procedure:
After the CT26 cells were cultured on the wall, MAC, CPP, and CPPM were added and incubated for 6 h, and the light group was light-exposed for 5 min, respectively. After the cells were washed, 1× annexin V–FITC (195 μl), annexin V–FITC (5 μl), and PI staining solution (10 μl) were added, respectively, and the reaction was detected by flow cytometry after 10 to 15 min. The concentrations of PIX and MAC in CPPM were […] and 3.3 μg/l, respectively.
For orientation: In flow cytometry, cells or beads pass a laser one at a time.

The subject of a further data set is CT26 subcutaneous tumor. In words: Tumor growth inhibition, CT26 subcutaneous tumor model. The data set is classed as in vivo, BALB/c female mice. Particulars: for antitumor effect (tumor size, volume, weight), no light: MAC 2.0 mg/kg, PIX 1.8 mg/kg, tail vein every 2 d x5, n = 5. As for the experimental part: (§1) CT26 cells were inoculated on the back of BALB/c female mice to construct a subcutaneous tumor model (Fig. S2A). The groups were treated as follows (the same groupings as below): MAC (2.0 mg/kg), CPP (PIX content of 1.8 mg/kg), and CPPM (PIX and MAC contents of 1.8 and 2.0 mg/kg, respectively) were injected separately through the tail vein, and the light group was irradiated using a laser for 6 h after drug administration for 10 min (intensity of 50% and power of 0.68 W). The mice were treated every 2 d for a total of 5 treatments, and tumor volume and body weight were measured every other day. On day 18, the mice were executed by cervical dislocation, and their blood was removed and dissected. The spleens of the mice were weighed, and the mouse tumor tissues were stained for Ki67, terminal deoxynucleotidyl transferase dUTP nick end labeling (TUNEL), and CD3/CD8. Different concentrations of CPPM solutions were prepared with saline; 100 μl of CPPM solution was added into 2 ml of mouse blood and mixed well and incubated in a 37 °C water bath for 1 h. After centrifugation, 100 μl of the supernatant was taken into a 96-well plate, and the absorbance value was measured by an enzyme-labeling instrument at a wavelength of 540 nm and the hemolysis rate was calculated. In addition, blood biochemistry and blood routine indexes were analyzed, and hematoxylin–eosin (H&E) staining was performed on tumor tissues and major organs.

Data set [2] in a line: Blood routine examination. Particulars: CT26 tumor mice, i.v. every 2 d x5, day 18, no light, mean ± SD. The data set is classed as in vivo, BALB/c female mice. As for the experimental part: as §1
The subject of the next data set is CT26 lung metastasis. Description: In vivo antitumor metastasis study (lung metastasis model). Also on record: species or system BALB/c female mice. Particulars: 10 d of treatment, n = 3. As for the experimental part: The mouse lung metastasis model was established by inoculating CT26 cells on the back of BALB/c female mice and injecting 2 × 10^6 CT26 cells labeled using green fluorescent protein through the tail vein when the tumor volume of the loaded mice reached 100 mm^3 (Fig. S2C). The groups were treated in the same manner as those in the immune response study. The mice were executed after 10 d of treatment, and the lung tissues of the mice were excised and photographed, and the metastatic lung nodules were quantified and H&E-stained for further examination of the extent of lung metastasis.

Data set [3] concerns CT26 cells. Description: Cytotoxicity test by the MTT method. The data set is classed as cell-based, mouse. The conditions noted are these: for cytotoxicity (MTT), dark: CT26, no light, highest PIX 6 μg/ml and MAC 6.72 μg/ml, 6 h + 24 h. As for the experimental part:
CT26 cells were seeded into 96-well plates, and materials with different concentration gradients were prepared. Different materials were added into 96-well plates at 100 μl per well according to the concentration gradient, respectively. The highest concentration of PIX in CPP was 6 μg/ml. The highest concentrations of PIX and MAC in CPPM were 6 and 6.72 μg/ml, respectively. After 6 h of incubation, the CPP light group and CPPM light group were irradiated using infrared light for 3 min, and after 24 h, 20 μl of MTT reagent was added, and the absorbance was detected by an enzyme meter (570 nm) and the cell viability was calculated.

The nature of data set [4]: In vitro 1O2 assay (Singlet Oxygen Sensor Green). The data set is classed as physicochemical. Particulars: PBS, SOSG probe, 630-nm laser, measured every 15 s. As for the experimental part:
To further explore the ROS-producing behavior of CPPM, MAC, CPP, and CPPM were prepared into 1-ml solutions with phosphate-buffered saline, and 10 μl of reactive oxygen Singlet Oxygen Sensor Green probe was added to each set of solutions. The resulting fluorescence intensity was measured as F0 in an F-302 model fluorescence spectrophotometer (excitation wavelength of 488.0 nm, wavelength range of 500.0 to 550.0 nm), and the fluorescence intensity was measured as Ft under 630-nm laser irradiation every 15 s. The concentration of PIX in CPP was 3 μg/l. The concentrations of PIX and MAC in CPPM were 3 and 3.3 μg/l, respectively.

A short description of data set [5]: Drug content / loading efficiency (PIX by UV-Vis, MAC by HPLC). The data set is classed as physicochemical. Particulars: UV-Vis at 630 nm, sample diluted to 1 mg/ml. On the procedure: CPP and CPPM were diluted to 1 mg/ml each. MAC was quantified by HPLC with a mobile phase A of water (0.2% TFA), a mobile phase B of acetonitrile, a flow rate of 1 ml/min, and a gradient elution of 10% to 100% B. The peak area of different concentrations of MAC was tested at 277 nm out, and the standard curve was plotted and the drug concentration was tested. PIX was quantified by ultraviolet–visible absorption spectrometry (UV–Vis), and the absorption values of different concentrations of PIX were determined at 630 nm, and the standard curve was plotted and the concentration of PIX was tested. Subsequently, the drug release profiles were determined by HPLC in release media at potential of hydrogen (pH) 5.3 and 7.4.

The subject of data set [6] is CT26 cells. In words: ICD immunofluorescence assay (CRT, HMGB1). Format: cell-based, mouse. Particulars: CT26, PIX 6 μg/ml, MAC 6.72 μg/ml, 630 nm 29.8 mW cm^-2 10 min. As for the experimental part: MAC, CPP, and CPPM were added to CT26 cells, and the light group was incubated for 6 h and then irradiated with light-emitting diode light (630 nm, 29.8 mW cm^−2) for 10 min. After continuing incubation for 4 h, paraformaldehyde (4%) and 0.1% Triton X-100 were added for fixation and permeabilization of cells, respectively. Subsequently, the cells were incubated with CRT or HMGB1 fluorescent primary antibody overnight ([…]), secondary antibody for 1 h, and DAPI for 20 min and then observed by microscopy. The PIX concentration was 6 μg/ml, and the MAC concentration was 6.72 μg/ml.

For data set [7], the system named is CT26 cells. In words: Intracellular ROS detection (DCFH-DA probe). Format: cell-based, mouse. Particulars: CT26, 6 h incubation. On the procedure: The CT26 cells were incubated for 6 h with the addition of MAC, CPP, and CPPM materials, respectively, after wall culture. Subsequently, a 2,7-dichlorodihydrofluorescein diacetate probe was added to stain the cells for 30 min, and the CPP light group and CPPM light group were illuminated for 3 min, and the cells were observed and analyzed by microscopy. The experimental groupings were (the same groupings as below): blank group (blank), MAC group (MAC), CPP group (CPP), CPP light exposure group (CPP+), CPPM group (CPPM), and CPPM light exposure group (CPPM+). The concentration of PIX in CPP was 6 μg/l. The concentrations of PIX and MAC in CPPM were 6 and 6.72 μg/l, respectively.

As for `CCCNS(=O)(=O)Nc1ncnc(OCCOc2ncc(Br)cn2)c1-c1ccc(Br)cc1` [MAC, Macitentan, reference compound], the “apoptosis of CT26 cells, dark” value with CT26 cells [1] was “lower apoptosis rates”. Besides, in the data set on CT26 subcutaneous tumor, the “antitumor effect (tumor size, volume, weight), no light” value is given as “low antitumor properties”. In [2], this molecule returned a PCT of 0.21 ± 0.06% and a PDW of 17.89 ± 0.54. The Mon in data set [2] (reference 0.00–0.30) is 5.54 ± 1.77 10^9/l. For the same molecule, in [2] (reference 0.10–1.80), the Gran was 116.23 ± 32.29 10^9/l. For the same molecule, in [2] (reference 0.70–5.70), the Lymph is 24.74 ± 5.26 10^9/l. Further, in data set [2] (reference 0.80–6.80), the WBC is 132.48 ± 37.09 10^9/l. For the same molecule, the RBC in data set [2] (reference 6.36–9.42) is 7.82 ± 0.54 10^12/l. In data set [2] (reference 13.00–17.00), this molecule returned an RDW of 14.91 ± 0.48%. In addition, the MCH in data set [2] (reference 15.80–19.00) is given as 16.61 ± 1.12 pg. Moreover, in data set [2] (reference 34.60–44.60), the HCT came to 37.4 ± 2.73%. The HCV in data set [2] (reference 48.20–58.30) was found to be 52.75 ± 2.51 fL. The HGB in [2] (reference 110.00–143.00) stood at 115.11 ± 15.08 g/L. This molecule registered an MCHC in data set [2] (reference 302.00–353.00) of 318.78 ± 20.68 g/L. Moreover, in the data set with CT26 lung metastasis, the “lung metastasis, no light” value is on record as “lung metastasis obviously occurred”. For the same molecule, in the data set with CT26 cells [3], the “cytotoxicity (MTT), dark” value is “no significant toxic effects”.

In the case of “C (PEG5000-Mal)-VRARTR-PIX [CPP, PEG5000-Mal assembled with CP; CPP+ is the light exposure group]”, the “apoptosis of CT26 cells, light” value in the data set with CT26 cells [1] (light 5 min) is on record as “significantly higher”. For the same molecule, the “apoptosis of CT26 cells, dark” value with CT26 cells [1] is listed as “lower apoptosis rates”. Besides, the “antitumor effect (tumor size, volume, weight), no light” value in the data set with CT26 subcutaneous tumor is listed as “low antitumor properties”. In the data set with CT26 subcutaneous tumor (PIX 1.8 mg/kg (MAC 2.0 mg/kg), tail vein every 2 d x5, laser 10 min 6 h after dosing, n = 5), the “antitumor effect (tumor size, volume, weight), light” value was “able to inhibit tumor growth”. The 1O2 generation result in [4] is “could produce ^1O2 under light conditions”. Further, the “loading efficiency of PIX” value in [5] turned out to be 12.09%. Moreover, the “lung metastasis, light” value in the data set with CT26 lung metastasis (laser) is given as “a few lung metastases were visible”. Also, the “lung metastasis, no light” value in the data set with CT26 lung metastasis was “lung metastasis obviously occurred”. Moreover, in the data set on CT26 cells [6], the “CRT expression on the cell membrane under PDT” value is “increase the expression of CRT on the cell membrane” and the “HMGB1 in tumor cells under PDT” value is “significantly attenuated”. Moreover, the “cytotoxicity (MTT), light” value in the data set on CT26 cells [3] (CT26, 6 h incubation then light 3 min, 24 h, highest PIX 6 μg/ml) is given as “stronger cytotoxicity”. Moreover, the “cytotoxicity (MTT), dark” value in the data set with CT26 cells [3] is “no significant toxic effects”. Moreover, in the data set with CT26 cells [7] (light 3 min), the “intracellular ROS, light” value is “showed green fluorescence”. The “intracellular ROS, dark” value in the data set with CT26 cells [7] (no light) is recorded as “did not produce ROS”.

The values above are taken from PMC12147445, “Dual-Active Nanoimmunomodulators for the Synergistic Enhancement of the Antitumor Efficacy of Photodynamic Immunotherapy” (Biomaterials Research, 2025).
